Article PMC8842224 (Journal of Medicinal Chemistry, 2022)
In brackets after ≈: the same amount, converted by molar mass. Read-outs that look alike come from different tables or passages of the source. Marks after values point to notes of the source that are not given here.

Tests used:
[1] = Aqueous solubility by nephelometry in PBS; conditions: pH 7.4
[2] = biological target: T1, hA2B (Homo sapiens, UniProt P29275); assay: cAMP functional assay, inhibition of NECA effect; type: cell-based; conditions: read-out: hA2B % Inhib. NECA (1 μM)
T1 sequence (P29275 1-332): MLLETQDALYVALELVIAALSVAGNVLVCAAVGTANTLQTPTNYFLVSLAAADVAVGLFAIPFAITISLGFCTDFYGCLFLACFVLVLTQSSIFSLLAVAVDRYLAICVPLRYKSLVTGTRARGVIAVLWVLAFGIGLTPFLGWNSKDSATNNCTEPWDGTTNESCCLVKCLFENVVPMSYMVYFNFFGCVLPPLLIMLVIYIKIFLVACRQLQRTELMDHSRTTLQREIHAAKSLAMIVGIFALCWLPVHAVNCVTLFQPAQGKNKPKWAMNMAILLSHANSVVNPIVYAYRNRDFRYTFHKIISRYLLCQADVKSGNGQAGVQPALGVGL

[3] = in vitro; conditions: human, microsomes, pH 7.4
[4] = biological target: hA2A (Homo sapiens, UniProt P29274); assay: cAMP functional assay, inhibition of NECA effect; type: cell-based; conditions: read-out: hA2A % Inhib. NECA (1 μM)
[5] = biological target: T2, hA3 (Homo sapiens, UniProt P0DMS8); assay: cAMP functional assay, inhibition of NECA effect; type: cell-based; conditions: read-out: hA3 % Inhib. NECA (1 μM)
T2 sequence (P0DMS8 1-318): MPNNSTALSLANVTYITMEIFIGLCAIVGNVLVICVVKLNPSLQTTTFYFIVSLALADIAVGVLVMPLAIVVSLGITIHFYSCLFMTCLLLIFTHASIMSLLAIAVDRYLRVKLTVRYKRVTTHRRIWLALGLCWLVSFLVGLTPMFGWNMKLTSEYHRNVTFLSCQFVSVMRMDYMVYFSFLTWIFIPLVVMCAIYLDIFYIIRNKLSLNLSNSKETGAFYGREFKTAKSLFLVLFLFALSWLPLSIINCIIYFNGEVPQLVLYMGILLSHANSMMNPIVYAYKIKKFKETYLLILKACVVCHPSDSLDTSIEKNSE

[6] = biological target: T3, human A1AR (Homo sapiens, UniProt P30542); conditions: for Ki: read-out: hA1 Ki, displacement of specific [3H]DPCPX binding, human CHO cells, ± SEM, n = 3; for Exp absolute binding affinity (ΔGbind): experimental, A1AR
T3 sequence (P30542 1-326): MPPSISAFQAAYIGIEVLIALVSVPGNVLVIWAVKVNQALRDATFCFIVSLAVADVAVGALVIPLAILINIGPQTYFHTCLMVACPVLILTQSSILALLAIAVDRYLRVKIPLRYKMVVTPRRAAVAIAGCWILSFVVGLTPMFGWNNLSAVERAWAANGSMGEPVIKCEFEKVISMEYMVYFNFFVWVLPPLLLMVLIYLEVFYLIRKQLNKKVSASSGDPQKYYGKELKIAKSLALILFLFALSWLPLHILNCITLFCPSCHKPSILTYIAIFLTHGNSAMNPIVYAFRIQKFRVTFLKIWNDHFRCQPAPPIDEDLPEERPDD

[7] = biological target: human A2AAR (Homo sapiens, UniProt P29274)
[8] = biological target: T4, human A2BAR (Homo sapiens, UniProt P29275); conditions: read-out: hA2B Ki; displacement of specific [3H]DPCPX binding, human HEK-293 cells, ± SEM, n = 3
T4 sequence (P29275 1-332): T1 sequence (P29275 1-332)

[9] = biological target: T3, human A1AR; assay: biochemical
[10] = tested on: A2A; conditions: cited from earlier work
[11] = tested on: A3; conditions: printed in Figure 2; cited from earlier work
[12] = biological target: T4, human A2BAR; assay: biochemical; conditions: read-out: hA2B percentage displacement of specific binding at 1 μM
[13] = biological target: A1; conditions: cited from earlier work
[14] = biological target: P-glycoprotein (P-gp) (Homo sapiens, UniProt P08183); conditions: MDCK-MDR1 cells, NA = not active
[15] = biological target: T5, hA1ARs (Homo sapiens, UniProt P30542); conditions: NECA 100 nM, forskolin 3 μM
T5 sequence (P30542 1-326): T3 sequence (P30542 1-326)

[16] = human microsomes
[17] = read-out: hA2A Ki, displacement of specific [3H]ZM241385 binding, human HeLa cells, ± SEM, n = 3
[18] = read-out: ki_a2a, supplementary csv, unit inferred

Sequence of human A2AAR (P29274 whole entry): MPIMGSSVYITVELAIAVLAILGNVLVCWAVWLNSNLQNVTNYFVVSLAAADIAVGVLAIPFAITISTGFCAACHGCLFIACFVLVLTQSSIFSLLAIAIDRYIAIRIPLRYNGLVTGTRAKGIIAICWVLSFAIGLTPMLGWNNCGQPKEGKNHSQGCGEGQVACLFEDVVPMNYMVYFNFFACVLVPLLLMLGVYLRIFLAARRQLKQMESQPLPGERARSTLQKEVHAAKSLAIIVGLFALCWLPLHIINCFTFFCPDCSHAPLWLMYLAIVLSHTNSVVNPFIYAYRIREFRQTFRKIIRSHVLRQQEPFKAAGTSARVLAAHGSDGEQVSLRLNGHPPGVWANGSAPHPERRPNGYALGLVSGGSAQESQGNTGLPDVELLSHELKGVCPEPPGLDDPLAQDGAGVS
Sequence of hA2A (P29274 whole entry): as above
Sequence of P-glycoprotein (P-gp) (P08183 whole entry): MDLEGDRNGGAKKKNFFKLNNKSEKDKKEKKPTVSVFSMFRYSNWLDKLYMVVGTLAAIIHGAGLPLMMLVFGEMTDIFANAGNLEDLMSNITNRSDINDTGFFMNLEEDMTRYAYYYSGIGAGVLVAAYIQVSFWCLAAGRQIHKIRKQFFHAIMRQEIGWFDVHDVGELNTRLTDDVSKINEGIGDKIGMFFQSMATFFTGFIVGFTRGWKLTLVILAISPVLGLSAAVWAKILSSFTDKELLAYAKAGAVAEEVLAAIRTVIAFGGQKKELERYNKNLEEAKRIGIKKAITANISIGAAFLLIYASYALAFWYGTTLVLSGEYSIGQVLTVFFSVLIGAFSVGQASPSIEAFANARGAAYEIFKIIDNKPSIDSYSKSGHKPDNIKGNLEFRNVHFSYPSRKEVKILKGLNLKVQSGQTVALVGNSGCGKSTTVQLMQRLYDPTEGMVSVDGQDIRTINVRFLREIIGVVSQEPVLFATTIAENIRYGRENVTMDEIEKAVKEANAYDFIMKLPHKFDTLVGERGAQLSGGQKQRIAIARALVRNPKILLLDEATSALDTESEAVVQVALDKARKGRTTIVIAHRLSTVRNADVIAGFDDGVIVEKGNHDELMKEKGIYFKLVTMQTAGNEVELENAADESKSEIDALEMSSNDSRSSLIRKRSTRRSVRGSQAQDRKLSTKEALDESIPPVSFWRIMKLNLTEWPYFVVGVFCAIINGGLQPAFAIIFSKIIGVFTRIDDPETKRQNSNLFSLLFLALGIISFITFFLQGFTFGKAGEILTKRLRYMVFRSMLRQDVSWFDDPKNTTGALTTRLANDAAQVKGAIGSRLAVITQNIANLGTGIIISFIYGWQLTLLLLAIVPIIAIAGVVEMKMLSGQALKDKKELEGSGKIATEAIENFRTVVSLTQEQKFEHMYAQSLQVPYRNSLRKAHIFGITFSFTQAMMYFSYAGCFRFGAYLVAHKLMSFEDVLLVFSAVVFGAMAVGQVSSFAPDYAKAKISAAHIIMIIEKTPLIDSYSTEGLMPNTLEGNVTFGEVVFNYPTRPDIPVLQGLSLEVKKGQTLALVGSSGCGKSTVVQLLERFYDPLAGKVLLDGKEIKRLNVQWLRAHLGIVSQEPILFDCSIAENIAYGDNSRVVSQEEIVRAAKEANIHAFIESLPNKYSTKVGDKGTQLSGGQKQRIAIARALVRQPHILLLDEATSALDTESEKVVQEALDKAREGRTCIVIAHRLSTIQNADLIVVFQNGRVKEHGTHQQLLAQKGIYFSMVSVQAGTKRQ

CNc1nc(-c2ccccc2)c(C#N)c(-c2cccc(Cl)c2)n1 [19l]
solubility at 2 h [1]: 75.4 µM (≈ 24.2 µg/mL)
inhibition at 1 µM [2]: 11%
half-life [3]: 6.24 min
inhibition at 1 µM [4]: 16%
inhibition at 1 µM [5]: 9%

N#Cc1c(-c2ccccc2)nc(N)nc1-c1cccc(Cl)c1 [18f]
Ki [6]: 4.25 ± 1.1 nM
Ki [7, 17]: 15.5 ± 2.4 nM
Ki [8]: 177 ± 13 nM

CNc1nc(-c2ccccc2)c(C#N)c(-c2cccnc2)n1 [19bd]
Ki [9]: < 50 nM
A1AR selectivity [6]: > 1000 fold
Exp relative binding affinity (ΔΔGbind) ([6]; Lig 2 relative to Lig 1 = 19a): 0.44 kcal/mol
Exp relative binding affinity (ΔΔGbind) ([6]; Lig 2 relative to Lig 1 = 19bb): -0.64 kcal/mol
Exp absolute binding affinity (ΔGbind) [6]: -10.52 kcal/mol
Ki [6]: 19.3 ± 7.1 nM

N#Cc1c(NC(=O)C2CCCC2)nc(-c2ccccc2)nc1-c1ccc2c(c1)OCO2 [15c]
A2A (1μM) [10]: 14%
A3 (1μM) [11]: 27%

CNc1nc(-c2ccccc2)c(C#N)c(-c2cc(Cl)cc(Cl)c2)n1 [19aj]
Ki [9]: < 50 nM
Exp absolute binding affinity (ΔGbind) [6]: -10.32 kcal/mol
Ki [6]: 27 ± 3.6 nM

COc1cccc(-c2nc(N)nc(-c3ccccc3)c2C#N)c1 [18g]
Ki [6]: 2.08 ± 0.16 nM
Ki [7, 17]: 6.91 ± 1.52 nM
Ki [8]: 31.2 ± 6.3 nM

CNc1nc(-c2ccccc2)c(C#N)c(-c2ccc(O)cc2)n1 [19z]
Ki [9]: < 50 nM
A1AR selectivity [6]: > 1000 fold
Exp relative binding affinity (ΔΔGbind) ([6]; Lig 2 relative to Lig 1 = 19a): 0.94 kcal/mol
Exp relative binding affinity (ΔΔGbind) ([6]; Lig 2 relative to Lig 1 = 19ad): 0.28 kcal/mol
Exp absolute binding affinity (ΔGbind) [6]: -10.02 kcal/mol
Ki [6]: 44.6 ± 3.2 nM

COc1cc(OC)cc(-c2nc(N)nc(-c3ccccc3)c2C#N)c1 [18t]
Ki [6]: 2.58 ± 0.67 nM
Ki [7, 17]: 1.73 ± 0.33 nM
Ki [8]: 45.1 ± 3.7 nM

N#Cc1c(-c2cccc(Cl)c2)nc(N)nc1-c1ccc2c(c1)OCO2 [18aj]
Ki [6]: 5.61 ± 0.74 nM
Ki [7, 17]: 101 ± 15 nM
Ki [7, 18]: 102 nM
Ki [8]: 386 ± 15 nM

N#Cc1c(-c2ccccc2)nc(N)nc1-c1cccc(O)c1 [18h]
Ki [6]: 1.49 ± 0.43 nM
Ki [7, 17]: 10.2 ± 3.52 nM
Ki [8]: 50.1 ± 8.2 nM

CCNc1nc(-c2ccccc2)c(C#N)c(-c2cccnc2)n1 [19be]
Ki [6]: 11.8 ± 3.5 nM
inhibition at 1 µM [12]: 1%
Ki [7, 17]: 335 ± 18 nM

N#Cc1c(-c2ccccc2)nc(Nc2ccccc2)nc1-c1ccccc1F [19e]
Ki [6]: 6.25 ± 1.02 nM
Ki [7, 17]: 52.5 ± 6.2 nM
Ki [8]: 107 ± 10 nM

CCNc1nc(-c2ccccc2)c(C#N)c(-c2ccc3c(c2)OCO3)n1 [19ap]
Ki [6]: 6.7 ± 0.67 nM
Ki [7, 17]: 894 ± 42 nM
Ki [7, 18]: 895 nM
Ki [8]: 217 ± 18 nM

CCNc1nc(-c2ccccc2)c(C#N)c(-c2cccc(C#N)c2)n1 [19t]
Ki [6]: 2.46 ± 0.18 nM
Ki [7, 17]: 155 ± 21 nM
Ki [8]: 14.2 ± 3.8 nM

CNc1nc(-c2ccccc2)c(C#N)c(-c2cc(OC)cc(OC)c2)n1 [19am]
Exp relative binding affinity (ΔΔGbind) ([6]; Lig 2 relative to Lig 1 = 19a): 0,11 kcal/mol
Exp relative binding affinity (ΔΔGbind) ([6]; Lig 2 relative to Lig 1 = 19ab): -0.98 kcal/mol
Exp absolute binding affinity (ΔGbind) [6]: -10.85 kcal/mol
Ki [6]: 11 ± 0.8 nM
Ki [7, 17]: 11.5 ± 4.7 nM
Ki [8]: 60 ± 5.1 nM

Nc1nc(-c2ccccc2)cc(-c2ccccc2)n1 [17a]
Ki [13]: 17.7 nM

N#Cc1c(-c2ccccc2)nc(N)nc1-c1cccc(F)c1 [18e]
Ki [6]: 13.4 ± 4.1 nM
Ki [7, 17]: 19.5 ± 3.3 nM
Ki [8]: 186 ± 11 nM

CNc1nc(-c2ccccc2)c(C#N)c(-c2ccsc2)n1 [19az]
Ki [9]: < 50 nM
A1AR selectivity [6]: > 1000 fold
Exp relative binding affinity (ΔΔGbind) ([6]; Lig 2 relative to Lig 1 = 19a): 0.91 kcal/mol
Exp relative binding affinity (ΔΔGbind) ([6]; Lig 2 relative to Lig 1 = 19bb): -0.17 kcal/mol
Exp absolute binding affinity (ΔGbind) [6]: -10.05 kcal/mol
Ki [6]: 42.8 ± 3.7 nM

CNc1nc(-c2ccccc2)c(C#N)c(-c2ccc(F)cc2)n1 [19v]
solubility at 2 h [1]: 18 µM (≈ 5.48 µg/mL)
half-life [3]: 18.6 min
inhibition at 1 µM [4]: 25%
inhibition at 1 µM [5]: 5%

CNc1nc(-c2ccccc2)c(C#N)c(-c2ccc(F)cc2F)n1 [19af]
Ki [9]: < 50 nM
Exp absolute binding affinity (ΔGbind) [6]: -10.42 kcal/mol
Ki [6]: 22.6 ± 7 nM
Calcein-AM transport inhibition at 100 μM [14]: 44% ^a

N#Cc1c(-c2ccccc2)nc(N)nc1-c1ccco1 [18x]
Ki [6]: 9.7 ± 1.2 nM
Ki [7, 17]: 10.1 ± 3.7 nM
Ki [8]: 21.8 ± 2.7 nM

N#Cc1c(-c2ccc(F)cc2)nc(N)nc1-c1ccco1 [18am]
Ki [6]: 9.08 ± 1.16 nM
Ki [7, 17]: 5.72 ± 0.26 nM
Ki [8]: 13.9 ± 3.7 nM

CNc1nc(-c2ccccc2)c(C#N)c(-c2ccc3c(c2)OCO3)n1 [19ao]
solubility at 2 h [1]: 5.4 µM (≈ 1.78 µg/mL)
inhibition at 1 µM [2]: 1%
half-life [3]: 15.2 min
inhibition at 1 µM [4]: 18%
Calcein-AM transport inhibition at 100 μM [14]: 59% ^a
inhibition at 1 µM [5]: 5%

Nc1cc(-c2ccc3c(c2)OCO3)nc(-c2ccccc2)n1 [15b]
A3 (1μM) [11]: 15%

CNc1nc(-c2ccccc2)c(C#N)c(-c2cccc(C#N)c2)n1 [19s]
Exp relative binding affinity (ΔΔGbind) ([6]; Lig 2 relative to Lig 1 = 19a): -0.66 kcal/mol
Exp absolute binding affinity (ΔGbind) [6]: -11.62 kcal/mol
Ki [6]: 2.99 ± 0.71 nM
Ki [7, 17]: 78.5 ± 6.7 nM
Ki [8]: 34.6 ± 5.7 nM

N#Cc1c(-c2cccc(Cl)c2)nc(N)nc1-c1cccc(Cl)c1 [18ah]
Ki [6]: 4.82 ± 0.37 nM
Ki [7, 17]: 35.3 ± 7.7 nM
Ki [8]: 73.6 ± 6.8 nM

CCCn1c(=O)c2[nH]c(-c3ccc(OCC(=O)NCCN)cc3)nc2n(CCC)c1=O [XAC]
functional behaviour at hA1ARs (cAMP) [15]: reverse the inhibitory effect of NECA on FSK-induced cAMP accumulation

C[C@]12CC[C@H]3[C@@H](CCC4=CC(=O)CC[C@@]43C)[C@@H]1CC[C@@H]2O [Testosterone, reference compound]
half-life [3]: 17.1 min
microsomal CLint [3]: 27.8 µL/min/mg
% Remanent (sampling time 60 min) [16]: 8.77%
